The values below come from BindingDB's records for doi:10.1016/j.bmcl.2004.04.105 (Institut Henri Beaufour, 2004).

The nature of test [1]: Inhibitory activity against on calpain in C6 glial cells.
The nature of test [2]: Inhibitory activity against on calpain 1 in C6 glial cells.

Usually pIC50 stands for −log10 of the IC50, conventionally taken in molar units. Read a high pIC50 as a small IC50.

pIC50: −log10 of the molar value.

Compound `CC(C)C[C@H](NC(=O)c1ccc2c(c1)Nc1ccccc1S2)C(=O)N[C@H]1CCOC1O` (some centres not stated) gave a negative logarithm of the IC50 (pIC50) in test [1] of 4.63.
In test [2], `CC(=O)OC1OCC[C@@H]1NC(=O)[C@H](CC(C)C)NC(=O)c1ccc2c(c1)Nc1ccccc1S2` (some centres not stated) had a pIC50 of 4.87.
